Reference: patent publication US20210169892A1, “MODULATORS OF THE INTEGRATED STRESS PATHWAY” (Calico Life Sciences LLC, priority 2017, published 2021)

Tested on: HEK293T cells carrying the ATF4 luciferase reporter
Test: ATF4-Luc assay (in vitro model of vanishing white matter disease)
Type: cell-based
Conditions: Homo sapiens, HEK-293T; HEK293T cells with ATF4 luciferase reporter, 1 μg/mL tunicamycin, 7 hours, One Glo luminescence
In short: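 Compound at 200 nM and tunicamycin at 1 μg/mL were given together for 7 h to HEK293T cells stably transduced with an ATF4 5′-UTR-driven firefly luciferase reporter. Read-out by luminescence, reported as EC50.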

Row | SMILES | EC50
1 | O=C(COc1ccc(Cl)c(F)c1)NC12CC(NC(=O)C3CN(C(=O)C4CC4)c4cc(Cl)ccc4O3)(C1)C2 (stereo not shown) [Compound 149, 6-chloro-N-{3-[2-(4-chloro-3-fluorophenoxy)acetamido]bicyclo[1.1.1]pentan-1-yl}-4-(cyclopropanecarbonyl)-3,4-dihydro-2H-1,4-benzoxazine-2-carboxamide] | 50 to 250 nM
2 | COc1ccc(C(=O)N2CC(C(=O)NC34CC(NC(=O)COc5ccc(Cl)c(F)c5)(C3)C4)Oc3ccc(Cl)cc32)cc1 (stereo not shown) [Compound 150, 6-chloro-N-{3-[2-(4-chloro-3-fluorophenoxy)acetamido]bicyclo[1.1.1]pentan-1-yl}-4-(4-methoxybenzoyl)-3,4-dihydro-2H-1,4-benzoxazine-2-carboxamide] | 250 to 500 nM
3 | O=C(COc1ccc(Cl)c(F)c1)NC12CC(NC(=O)C3CN(C(=O)C4CCOCC4)c4cc(Cl)ccc4O3)(C1)C2 (stereo not shown) [Compound 151, 6-chloro-N-{3-[2-(4-chloro-3-fluorophenoxy)acetamido]bicyclo[1.1.1]pentan-1-yl}-4-(oxane-4-carbonyl)-3,4-dihydro-2H-1,4-benzoxazine-2-carboxamide] | 500 to 2000 nM
4 | O=C(COc1ccc(Cl)c(F)c1)NC12CC(NC(=O)C3CN(C(=O)C4CCOC4)c4cc(Cl)ccc4O3)(C1)C2 (stereo not shown) [Compound 152, 6-chloro-N-{3-[2-(4-chloro-3-fluorophenoxy)acetamido]bicyclo[1.1.1]pentan-1-yl}-4-(oxolane-3-carbonyl)-3,4-dihydro-2H-1,4-benzoxazine-2-carboxamide] | 250 to 500 nM
5 | Cc1oncc1C(=O)N1CC(C(=O)NC23CC(NC(=O)COc4ccc(Cl)c(F)c4)(C2)C3)Oc2ccc(Cl)cc21 (stereo not shown) [Compound 153, 6-chloro-N-{3-[2-(4-chloro-3-fluorophenoxy)acetamido]bicyclo[1.1.1]pentan-1-yl}-4-(5-methyl-1,2-oxazole-4-carbonyl)-3,4-dihydro-2H-1,4-benzoxazine-2-carboxamide] | 10 to 50 nM
6 | O=C(COc1ccc(Cl)c(F)c1)NC12CC(NC(=O)C3CN(C(=O)c4ccno4)c4cc(Cl)ccc4O3)(C1)C2 (stereo not shown) [Compound 154, 6-chloro-N-{3-[2-(4-chloro-3-fluorophenoxy)acetamido]bicyclo[1.1.1]pentan-1-yl}-4-(1,2-oxazole-5-carbonyl)-3,4-dihydro-2H-1,4-benzoxazine-2-carboxamide] | < 10 nM
7 | O=C(O)CC1c2ccccc2CCN1C(=O)NC12CC(NC(=O)COc3ccc(Cl)c(F)c3)(C1)C2 (stereo not shown) [Compound 155, [2-({3-[2-(4-chloro-3-fluorophenoxy)acetamido]bicyclo[1.1.1]pentan-1-yl}carbamoyl)-1,2,3,4-tetrahydroisoquinolin-1-yl]acetic Acid] | > 2000 nM
8 | COCCOCC(=O)N1CC(C(=O)NC23CC(NC(=O)COc4ccc(Cl)c(F)c4)(C2)C3)Oc2ccc(Cl)cc21 (stereo not shown) [Compound 156, 6-chloro-N-{3-[2-(4-chloro-3-fluorophenoxy)acetamido]bicyclo[1.1.1]pentan-1-yl}-4-[(2-methoxyethoxy)acetyl]-3,4-dihydro-2H-1,4-benzoxazine-2-carboxamide] | 10 to 50 nM
9 | CC(=O)N1CC(C(=O)NC23CC(NC(=O)COc4ccc(Cl)c(F)c4)(C2)C3)Oc2ccc(Cl)cc21 (stereo not shown) [Compound 157, 4-acetyl-6-chloro-N-{3-[2-(4-chloro-3-fluorophenoxy)acetamido]bicyclo[1.1.1]pentan-1-yl}-3,4-dihydro-2H-1,4-benzoxazine-2-carboxamide] | 10 to 50 nM
10 | COCC(=O)N1CC(C(=O)NC23CC(NC(=O)COc4ccc(Cl)c(F)c4)(C2)C3)Oc2ccc(Cl)cc21 (stereo not shown) [Compound 158, 6-chloro-N-{3-[2-(4-chloro-3-fluorophenoxy)acetamido]bicyclo[1.1.1]pentan-1-yl}-4-(methoxyacetyl)-3,4-dihydro-2H-1,4-benzoxazine-2-carboxamide] | 10 to 50 nM
11 | O=C(COc1ccc(Cl)c(F)c1)NC12CC(NC(=O)C3CN(C(=O)C(F)(F)C(F)(F)C(F)(F)F)c4cc(Cl)ccc4O3)(C1)C2 (stereo not shown) [Compound 159, 6-chloro-N-{3-[2-(4-chloro-3-fluorophenoxy)acetamido]bicyclo[1.1.1]pentan-1-yl}-4-(2,2,3,3,4,4,4-heptafluorobutanoyl)-3,4-dihydro-2H-1,4-benzoxazine-2-carboxamide] | < 10 nM
12 | O=C(COc1ccc(Cl)c(F)c1)NC12CC(NC(=O)C3CN(C(=O)c4cccc(C(F)(F)F)c4)c4cc(Cl)ccc4O3)(C1)C2 (stereo not shown) [Compound 160, 6-chloro-N-{3-[2-(4-chloro-3-fluorophenoxy)acetamido]bicyclo[1.1.1]pentan-1-yl}-4-[3-(trifluoromethyl)benzoyl]-3,4-dihydro-2H-1,4-benzoxazine-2-carboxamide] | > 2000 nM
13 | O=C(COc1ccc(Cl)c(F)c1)NC12CC(NC(=O)C3CN(C(=O)C(F)(F)C(F)F)c4cc(Cl)ccc4O3)(C1)C2 (stereo not shown) [Compound 161, 6-chloro-N-{3-[2-(4-chloro-3-fluorophenoxy)acetamido]bicyclo[1.1.1]pentan-1-yl}-4-(2,2,3,3-tetrafluoropropanoyl)-3,4-dihydro-2H-1,4-benzoxazine-2-carboxamide] | < 10 nM
14 | CSCCC(=O)N1CC(C(=O)NC23CC(NC(=O)COc4ccc(Cl)c(F)c4)(C2)C3)Oc2ccc(Cl)cc21 (stereo not shown) [Compound 162, 6-chloro-N-{3-[2-(4-chloro-3-fluorophenoxy)acetamido]bicyclo[1.1.1]pentan-1-yl}-4-[3-(methylsulfanyl)propanoyl]-3,4-dihydro-2H-1,4-benzoxazine-2-carboxamide] | 50 to 250 nM
15 | Cc1cc(S(=O)(=O)N2CC(C(=O)NC34CC(NC(=O)COc5ccc(Cl)c(F)c5)(C3)C4)Oc3ccc(Cl)cc32)c(C(F)(F)F)o1 (stereo not shown) [Compound 163, 6-chloro-N-{3-[2-(4-chloro-3-fluorophenoxy)acetamido]bicyclo[1.1.1]pentan-1-yl}-4-[5-methyl-2-(trifluoromethyl)furan-3-sulfonyl]-3,4-dihydro-2H-1,4-benzoxazine-2-carboxamide] | > 2000 nM
16 | COc1ccc(S(=O)(=O)N2CC(C(=O)NC34CC(NC(=O)COc5ccc(Cl)c(F)c5)(C3)C4)Oc3ccc(Cl)cc32)cc1 (stereo not shown) [Compound 164, 6-chloro-N-{3-[2-(4-chloro-3-fluorophenoxy)acetamido]bicyclo[1.1.1]pentan-1-yl}-4-(4-methoxybenzene-1-sulfonyl)-3,4-dihydro-2H-1,4-benzoxazine-2-carboxamide] | > 2000 nM
17 | Cn1cnc(S(=O)(=O)N2CC(C(=O)NC34CC(NC(=O)COc5ccc(Cl)c(F)c5)(C3)C4)Oc3ccc(Cl)cc32)c1 (stereo not shown) [Compound 165, 6-chloro-N-{3-[2-(4-chloro-3-fluorophenoxy)acetamido]bicyclo[1.1.1]pentan-1-yl}-4-(1-methyl-1H-imidazole-4-sulfonyl)-3,4-dihydro-2H-1,4-benzoxazine-2-carboxamide] | 10 to 50 nM
18 | O=C(COc1ccc(Cl)c(F)c1)NC12CC(NC(=O)C3CN(S(=O)(=O)c4ccc(F)cc4)c4cc(Cl)ccc4O3)(C1)C2 (stereo not shown) [Compound 166, 6-chloro-N-{3-[2-(4-chloro-3-fluorophenoxy)acetamido]bicyclo[1.1.1]pentan-1-yl}-4-(4-fluorobenzene-1-sulfonyl)-3,4-dihydro-2H-1,4-benzoxazine-2-carboxamide] | 500 to 2000 nM
19 | O=C(COc1ccc(Cl)c(F)c1)NC12CC(NC(=O)C3CN(C(=O)CCCC(F)(F)F)c4cc(Cl)ccc4O3)(C1)C2 (stereo not shown) [Compound 167, 6-chloro-N-{3-[2-(4-chloro-3-fluorophenoxy)acetamido]bicyclo[1.1.1]pentan-1-yl}-4-(5,5,5-trifluoropentanoyl)-3,4-dihydro-2H-1,4-benzoxazine-2-carboxamide] | 250 to 500 nM
20 | CS(=O)(=O)N1CC(C(=O)NC23CC(NC(=O)COc4ccc(Cl)c(F)c4)(C2)C3)Oc2ccc(Cl)cc21 (stereo not shown) [Compound 168, 6-chloro-N-{3-[2-(4-chloro-3-fluorophenoxy)acetamido]bicyclo[1.1.1]pentan-1-yl}-4-(methanesulfonyl)-3,4-dihydro-2H-1,4-benzoxazine-2-carboxamide] | 50 to 250 nM
21 | O=C(COc1ccc(Cl)c(F)c1)NC12CC(NC(=O)C3CN(C(=O)c4ccncc4)c4cc(Cl)ccc4O3)(C1)C2 (stereo not shown) [Compound 169, 6-chloro-N-{3-[2-(4-chloro-3-fluorophenoxy)acetamido]bicyclo[1.1.1]pentan-1-yl}-4-(pyridine-4-carbonyl)-3,4-dihydro-2H-1,4-benzoxazine-2-carboxamide] | 250 to 500 nM
22 | O=C(O)CCN1CC(C(=O)NC23CC(NC(=O)COc4ccc(Cl)c(F)c4)(C2)C3)Oc2ccc(Cl)cc21 (stereo not shown) [Compound 170, 3-[6-chloro-2-({3-[2-(4-chloro-3-fluorophenoxy)acetamido]bicyclo[1.1.1]pentan-1-yl}carbamoyl)-2,3-dihydro-4H-1,4-benzoxazin-4-yl]propanoic acid] | 250 to 500 nM
23 | CSN1CC(C(=O)NC23CC(NC(=O)COc4ccc(Cl)c(F)c4)(C2)C3)Oc2ccc(Cl)cc21 (stereo not shown) [Compound 172, 6-chloro-N-{3-[2-(4-chloro-3-fluorophenoxy)acetamido]bicyclo[1.1.1]pentan-1-yl}-4-(methylsulfanyl)-3,4-dihydro-2H-1,4-benzoxazine-2-carboxamide] | < 10 nM
24 | Cc1nn(C)cc1S(=O)(=O)N1CC(C(=O)NC23CC(NC(=O)COc4ccc(Cl)c(F)c4)(C2)C3)Oc2ccc(Cl)cc21 (stereo not shown) [Compound 173, 6-chloro-N-{3-[2-(4-chloro-3-fluorophenoxy)acetamido]bicyclo[1.1.1]pentan-1-yl}-4-(1,3-dimethyl-1H-pyrazole-4-sulfonyl)-3,4-dihydro-2H-1,4-benzoxazine-2-carboxamide] | 500 to 2000 nM
25 | NS(=O)(=O)c1ccc(S(=O)(=O)N2CC(C(=O)NC34CC(NC(=O)COc5ccc(Cl)c(F)c5)(C3)C4)Oc3ccc(Cl)cc32)cc1 (stereo not shown) [Compound 174, 6-chloro-N-{3-[2-(4-chloro-3-fluorophenoxy)acetamido]bicyclo[1.1.1]pentan-1-yl}-4-(4-sulfamoylbenzene-1-sulfonyl)-3,4-dihydro-2H-1,4-benzoxazine-2-carboxamide] | 50 to 250 nM
